Source: patent US4942163A, “1(2H)-isoquinolinones and 1-isoquinolineamines as cancer chemotherapeutic agents” (E. I. Du Pont de Nemours and Company, priority 1989, dated 1990)
In brackets after ≈: the same amount, converted by molar mass.

Legend:
B16 murine melanoma = B16 murine melanoma test (survival of tumor-bearing mice); assay type: in vivo, mouse; details: i.p. once daily for nine days from day 1
Experimental: The B16 tumor line arose spontaneously in 1954 on the skin at the base of the ear of a C57BL mouse. The tumor line is maintained by serial passage in female C57BL mice. On day 0, female B6C3F1 mice are inoculated intraperitoneally with 0.5 mL of a 10% tumor brei. This brei is prepared by homogenizing fresh B16 tumors, grown subcutaneously in C57BL mice, in cold physiological saline. Mice are randomized in groups of ten each, with 20 animals being in the control group. The test compounds and vehicle control are administered intraperitoneally once daily for nine consecutive days beginning on day 1. A ≥20% decrease in body weight on day 5 is considered an indication of toxicity. The acceptable mean control survival time is 14-22 days. Results are expressed as a percentage of the mean survival time of the vehicle-treated control group according to the formula: [formula] Mice which survive 90 days are considered cured and are not included in the calculation of the mean survival time. The NCI criteria for activity are used. A compound is considered to have moderate activity against B16 melanoma if it has a % T/C ≥125%, and it is considered to have good activity if it has a % T/C ≥150%.

[1] = test system: RPMI-7272 human melanoma cells; assay: In vitro RPMI-7272 human melanoma cell growth inhibition; assay type: cell-based; details: RPMI-7272 melanoma, inhibition of cell doublings by 50%, 72 h, read-out: ID50 (the source's name)
Experimental: The compounds of this invention were also tested for their ability to inhibit the growth of human melanoma RPMI-7272 cells in vitro. Human melanoma RPMI-7272 cells (Quinn et al. [J. Natl. Cancer Inst. 59, 301-305 (1977)]) were propagated in RPMI-1640 medium supplemented with 10 mM Tricine (pH 7.8), 10 mM HEPES (pH 7.3), 0.075% sodium bicarbonate, and 10% (vol/vol) heat-inactivated (56° C., 30 minutes) fetal bovine serum in a 95% air:5% CO2 humidified atmosphere. Cells were seeded at 3×10^5 per 35 mm plate to initiate growth inhibition studies. Cultures to receive growth medium only (control cultures) were set up in quadruplicate; cultures to receive varying concentrations of compounds were set up at one dish per dose of compound. Twenty-four hours post-seeding, duplicate control cell cultures were trypsinized and cells were counted using a Coulter Counter (day 1 control counts). At this time, varying concentrations of test compounds, from 100 to 0.00001 μg/mL were added to cultures and growth medium only was added to control cultures. Seventy-two hours after the addition of compound, cells were trypsinized and counted. The numbers of cell population doublings (day 4) in the presence or absence of compound were calculated. The ID50 represents the dose of compound (in μg/mL) required to inhibit the number of cell doublings by 50%. A compound is considered to have in vitro activity against RPMI-7272 melanoma if it has an ID50 ≤1 μg/mL. The number of population doublings of control cultures during 72 hours was between 3 and 4. […] Dilutions to 1 mg/mL in complete growth medium were made, followed by stock preparations of 100 and 30 μg/mL in complete growth medium. Serial ten-fold dilutions in complete medium were formulated from the 100 and 30 μ g/mL stocks, respectively, and added to cultures.

L1210 murine leukemia = L1210 murine leukemia test (survival of tumor-bearing mice); assay type: in vivo, mouse; details: i.p. once daily for nine days from day 1
Experimental: The L1210 tumor line originated in 1948 as a lymphocytic leukemia in a female DBA/2 mouse after the skin was treated with 0.2% 20-methylcholanthrene in ethyl ether. The tumor line is maintained by serial passage in female DBA/2 mice. On day 0, female CDF1 mice weighing 18-22 g are inoculated with 1×10^5 L1210 leukemia cells harvested from the ascites of DBA/2 mice. The mice are randomized into groups of six each and the test compounds and vehicle control are administered intraperitoneally once daily for nine consecutive days beginning on day 1. A ≥20% decrease in body weight on day 5 is considered an indication of toxicity. The acceptable control mean survival time is 8-11 days. Results are expressed as a percentage of the mean survival time of the vehicle-treated control group according to the formula: [formula] Mice which survive for 30 days are considered cured and are not included in the calculation of the mean survival time. The NCI criteria for activity are used. A compound is considered to have moderate activity against L1210 leukemia if it has a % T/C ≥125%, and it is considered to have good activity if it has a % T/C ≥150%.

[2] = test system: LOX human amelanotic melanoma; assay: LOX human amelanotic melanoma xenograft test in athymic nude mice; assay type: in vivo; details: for % T/C (median survival time vs vehicle control): i.p. every fourth day, three injections
Description: The LOX human amelanotic melanoma tumor line was obtained from Dr. Oystein Fodstad, Department of Biochemistry, Norwegian Radium Hospital, Oslo, Norway. The line is maintained by serial passage in athymic NCR-NU mice. On day 0, athymic nude mice, all of one sex weighing a minimum of 18 g for males and 17 g for females, are inoculated intraperitoneally with 1×10^6 LOX melanoma cells harvested from the ascites of athymic mice. The mice are randomized into groups of six each and the test compounds and vehicle control are administered intraperitoneally every fourth day beginning day 1 for a total of three injections. Animals are evaluated for toxicity on day 10. A decrease in body weight ≥20% is considered an indication of toxicity. The acceptable control median survival time is 17-24 days. Results are expressed as a percentage of the median survival time of the vehicle-treated control group according to the formula: [formula]
The NCI criteria for activity are used. A compound is considered to have moderate activity against LOX melanoma if it has a % T/C ≥140%, and it is considered to have good activity if it has a % T/C ≥200%.

P388 murine leukemia = P388 murine leukemia test (survival of tumor-bearing mice); assay type: in vivo, mouse; details: i.p. once daily for nine days from day 1
Experimental: The P388 tumor line originated in 1955 as a lymphocytic leukemia in a female DBA/2 mouse after the skin was painted with 3-methylcholanthrene. The tumor line is maintained by serial passage in female DBA/2 mice. On day 0, female CDF1 mice weighing 18-22 g are inoculated intraperitoneally with 1×10^6 P388 leukemia cells harvested from the ascites of DBA/2 mice. The mice are randomized into groups of six each and the test compounds and vehicle control are administered intraperitoneally once daily for nine consecutive days beginning day 1. A decrease in body weight on day 5 that is ≥20% is considered an indication of toxicity. The acceptable control mean survival time is 9-14 days. Results are expressed as a percentage of the mean survival time of the vehicle-treated control group according to the formula: [formula] Mice which survive for 30 days are considered cured and are not included in the calculation of the mean survival time. The NCI criteria for activity are used. A compound is considered to have moderate activity against P388 leukemia if it has a % T/C ≥125%, and it is considered to have good activity if it has a % T/C ≥150%.

Structure (SMILES) | IC50 [1] | also measured
Cc1ccc2cc(-c3cccc4ccccc34)nc(N3CCN(C)CC3)c2c1 [Example 31, 7-Methyl-1-(4-methyl-1-piperazinyl)-3-(1-naphthalenyl)-isoquinoline] |  | % T/C (mean survival time vs vehicle control) (B16 murine melanoma; dose 6 mg/kg): 133%
CN(C)c1ccc2cc(-c3cccc4ccccc34)[nH]c(=O)c2c1.Cl [Example 4, 7-(Dimethylamino)-3-(1-naphthalenyl)-1(2H)-isoquinolinone hydrochloride] | 0.001 µg/mL | % T/C (mean survival time vs vehicle control) (L1210 murine leukemia; dose 6 mg/kg): 156%
Nc1nc(-c2cccc3ccccc23)cc2ccc(Cl)cc12 [Example 21, 7-Chloro-3-(1-naphthalenyl)-1-isoquinolineamine] | 0.0094 µg/mL (≈ 0.0308 µM) | % T/C (mean survival time vs vehicle control) (B16 murine melanoma; dose 100 mg/kg): 138%
Cc1ccc2cc(-c3cccc4ccccc34)[nH]c(=O)c2c1 [Example 3, 7-Methyl-3-(1-naphthalenyl)-1(2H)-isoquinolinone] | 0.0072 µg/mL (≈ 0.0252 µM) | Cures (number of survivors/total at 60 days) ([2]; dose 240 mg/kg): 2/6; % T/C (median survival time vs vehicle control) ([2]; dose 240 mg/kg): 271%; % T/C (mean survival time vs vehicle control) (P388 murine leukemia; dose 100 mg/kg): 152%; % T/C (mean survival time vs vehicle control) (B16 murine melanoma; dose 100 mg/kg): 149%; % T/C (mean survival time vs vehicle control) (L1210 murine leukemia; dose 200 mg/kg): 133%
Cc1ccc2cc(-c3cccc4ccccc34)nc(N(C)CCN(C)C)c2c1 [Example 40, N,N,N'-Trimethyl-N'-(7-methyl-3-(1-naphthalenyl)-1-isoquinolinyl)-1,2-ethanediamine] |  | % T/C (mean survival time vs vehicle control) (B16 murine melanoma; dose 0.75 mg/kg): 135%
Cc1ccc2c(N)nc(-c3cccc4ccccc34)cc2c1 [Example 20, 6-Methyl-3-(1-naphthalenyl)-1-isoquinolineamine] | 0.00077 µg/mL (≈ 0.00271 µM) | % T/C (mean survival time vs vehicle control) (B16 murine melanoma; dose 6 mg/kg): 130%
Cc1ccc2c(=O)[nH]c(-c3cccc4ccccc34)cc2c1 [Example 9] | 0.0016 µg/mL (≈ 0.00561 µM) | 
Cc1cccc2c(=O)[nH]c(-c3cccc4ccccc34)cc12 [Example 7] | 0.29 µg/mL (≈ 1.02 µM) | 
C[N+](C)(C)c1ccc2cc(-c3cccc4ccccc34)[nH]c(=O)c2c1 [Example 5] | 0.055 µg/mL | 
O=c1[nH]c(-c2cccc3ccccc23)cc2ccc(Cl)cc12 [Example 2, 7-chloro-3-(1-naphthalenyl)-1(2H)-isoquinolinone] | 0.005 µg/mL (≈ 0.0164 µM) | % T/C (mean survival time vs vehicle control) (P388 murine leukemia; dose 100 mg/kg): 138%
O=c1[nH]c(-c2cccc3ccccc23)cc2ccccc12 [Example 1, 3-(1-Naphthalenyl)-1(2H)-isoquinolinone] |  | Cures (number of survivors/total at 60 days) ([2]; dose 400 mg/kg): 1/6; % T/C (median survival time vs vehicle control) ([2]; dose 400 mg/kg): 168%; % T/C (mean survival time vs vehicle control) (P388 murine leukemia; dose 200 mg/kg): 161%; % T/C (mean survival time vs vehicle control) (L1210 murine leukemia; dose 100 mg/kg): 148%

More lines, main results first:

IC50 [1] | Structure (SMILES) | also measured
0.07 µg/mL (≈ 0.23 µM) | Nc1nc(-c2cccc3ccccc23)cc2cccc(Cl)c12 [Example 23] | 
0.53 µg/mL (≈ 1.86 µM) | Cc1cccc2cc(-c3cccc4ccccc34)[nH]c(=O)c12 [Example 15] | 
0.0016 µg/mL (≈ 0.00563 µM) | Cc1ccc2cc(-c3cccc4ccccc34)nc(N)c2c1 [Example 22] | 
0.055 µg/mL (≈ 0.18 µM) | Nc1nc(-c2cccc3ccccc23)cc2cc(Cl)ccc12 [Example 19] | 
0.95 µg/mL (≈ 3.34 µM) | Cc1cccc2c(N)nc(-c3cccc4ccccc34)cc12 [Example 18] | 
0.22 µg/mL (≈ 0.814 µM) | Nc1nc(-c2cccc3ccccc23)cc2ccccc12 [Example 16] | 
0.05 µg/mL (≈ 0.176 µM) | Cc1cccc2cc(-c3cccc4ccccc34)nc(N)c12 [Example 24] | 
